Laboratory results taken from ChEMBL document CHEMBL4393697, “Lipophilic efficient phenylthiazoles with potent undecaprenyl pyrophosphatase inhibitory activity” (Eur J Med Chem, 2019).
≈ marks a conversion by molar mass, not a printed value.

What was measured:
Staphylococcus aureus [1] = assay: Bactericidal activity against vancomycin resistant Staphylococcus aureus VRS11a assessed as reduction in bacterial cell growth incubated for 18 to 20 hrs followed by re-plating on tryptic soy agar plates at 37 degC for 18 hrs by broth microdilution assay; type: functional
Staphylococcus aureus [2] = assay: Bactericidal activity against Staphylococcus aureus NRS107 assessed as reduction in bacterial cell growth incubated for 18 to 20 hrs followed by re-plating on tryptic soy agar plates at 37 degC for 18 hrs by broth microdilution assay; type: functional
J774 = assay: Cytotoxicity against mouse J774 assessed as reduction in cell viability at 16 ug/ml incubated for 24 hrs by MTS assay; type: cell-based; settings: j774, 24 h
Staphylococcus aureus [3] = assay: Bactericidal activity against methicillin resistant Staphylococcus aureus NRS119 assessed as reduction in bacterial cell growth incubated for 18 to 20 hrs followed by re-plating on tryptic soy agar plates at 37 degC for 18 hrs by broth microdilution assay; type: functional
Enterococcus faecalis [4] = assay: Antibacterial activity against vancomycin resistant Enterococcus faecalis ATCC 51299 assessed as reduction in bacterial cell growth incubated for 18 to 20 hrs by broth microdilution method; type: functional
Listeria monocytogenes [5] = assay: Bactericidal activity against Listeria monocytogenes ATCC 19111 assessed as reduction in bacterial cell growth incubated for 18 to 20 hrs followed by re-plating on tryptic soy agar plates at 37 degC for 18 hrs by broth microdilution assay; type: functional
[6] = Solubility of compound in PBS after 2 hrs by turbidity based absorbance analysis; type: physicochemical
Staphylococcus aureus [7] = assay: Bactericidal activity against vancomycin resistant Staphylococcus aureus VRS10 assessed as reduction in bacterial cell growth incubated for 18 to 20 hrs followed by re-plating on tryptic soy agar plates at 37 degC for 18 hrs by broth microdilution assay; type: functional
Listeria monocytogenes [8] = assay: Antibacterial activity against Listeria monocytogenes ATCC 19111 assessed as reduction in bacterial cell growth incubated for 18 to 20 hrs by broth microdilution method; type: functional
Streptococcus pneumoniae [9] = assay: Bactericidal activity against Methicillin resistant Streptococcus pneumoniae ATCC 700677 assessed as reduction in bacterial cell growth incubated for 18 to 20 hrs followed by re-plating on tryptic soy agar plates at 37 degC for 18 hrs by broth microdilution assay; type: functional
Staphylococcus aureus [10] = assay: Antibacterial activity against methicillin-resistant Staphylococcus aureus USA300 assessed as reduction in bacterial cell growth incubated for 18 to 20 hrs by broth microdilution method; type: functional
Staphylococcus aureus [11] = assay: Antibacterial activity against vancomycin resistant Staphylococcus aureus VRS10 assessed as reduction in bacterial cell growth incubated for 18 to 20 hrs by broth microdilution method; type: functional
Staphylococcus aureus [12] = assay: Antibacterial activity against Staphylococcus aureus ATCC 6538 assessed as reduction in bacterial cell growth incubated for 18 to 20 hrs by broth microdilution method; type: functional
Acinetobacter baumannii [13] = assay: Antibacterial activity against Acinetobacter baumannii ATCC 19606 assessed as reduction in bacterial cell growth incubated for 18 to 20 hrs by broth microdilution method; type: functional
Staphylococcus aureus [14] = assay: Bactericidal activity against vancomycin resistant Staphylococcus aureus VRS12 assessed as reduction in bacterial cell growth incubated for 18 to 20 hrs followed by re-plating on tryptic soy agar plates at 37 degC for 18 hrs by broth microdilution assay; type: functional
Enterococcus faecium [15] = assay: Bactericidal activity against vancomycin resistant Enterococcus faecium ATCC 700221 assessed as reduction in bacterial cell growth incubated for 18 to 20 hrs followed by re-plating on tryptic soy agar plates at 37 degC for 18 hrs by broth microdilution assay; type: functional
Klebsiella pneumoniae [16] = assay: Bactericidal activity against Klebsiella pneumoniae BAA-1706 assessed as reduction in bacterial cell growth incubated for 18 to 20 hrs followed by re-plating on tryptic soy agar plates at 37 degC for 18 hrs by broth microdilution assay; type: functional
Pseudomonas aeruginosa [17] = assay: Bactericidal activity against Pseudomonas aeruginosa ATCC 15442 assessed as reduction in bacterial cell growth incubated for 18 to 20 hrs followed by re-plating on tryptic soy agar plates at 37 degC for 18 hrs by broth microdilution assay; type: functional
Streptococcus pneumoniae [18] = assay: Antibacterial activity against Methicillin resistant Streptococcus pneumoniae ATCC 700677 assessed as reduction in bacterial cell growth incubated for 18 to 20 hrs by broth microdilution method; type: functional
Staphylococcus aureus [19] = assay: Antibacterial activity against methicillin resistant Staphylococcus aureus USA400 assessed as reduction in bacterial cell growth incubated for 18 to 20 hrs by broth microdilution method; type: functional
Staphylococcus aureus [20] = assay: Bactericidal activity against Staphylococcus aureus ATCC 6538 assessed as reduction in bacterial cell growth incubated for 18 to 20 hrs followed by re-plating on tryptic soy agar plates at 37 degC for 18 hrs by broth microdilution assay; type: functional
[21] = test system: Staphylococcus epidermidis; assay: Antibacterial activity against methicillin resistant Staphylococcus epidermidis NRS101 assessed as reduction in bacterial cell growth incubated for 18 to 20 hrs by broth microdilution method; type: functional
Escherichia coli [22] = assay: Bactericidal activity against Escherichia coli JW55031 harboring deltatolC mutant assessed as reduction in bacterial cell growth incubated for 18 to 20 hrs followed by re-plating on tryptic soy agar plates at 37 degC for 18 hrs by broth microdilution assay; type: functional
Staphylococcus aureus [23] = assay: Antibacterial activity against vancomycin resistant Staphylococcus aureus VRS11a assessed as reduction in bacterial cell growth incubated for 18 to 20 hrs by broth microdilution method; type: functional
Staphylococcus aureus [24] = assay: Antibacterial activity against Staphylococcus aureus NRS107 assessed as reduction in bacterial cell growth incubated for 18 to 20 hrs by broth microdilution method; type: functional
Staphylococcus aureus [25] = assay: Bactericidal activity against methicillin-resistant Staphylococcus aureus USA300 assessed as reduction in bacterial cell growth incubated for 18 to 20 hrs followed by re-plating on tryptic soy agar plates at 37 degC for 18 hrs by broth microdilution assay; type: functional
Streptococcus pneumoniae [26] = assay: Bactericidal activity against Cephalosporin resistant Streptococcus pneumoniae ATCC 51916 assessed as reduction in bacterial cell growth incubated for 18 to 20 hrs followed by re-plating on tryptic soy agar plates at 37 degC for 18 hrs by broth microdilution assay; type: functional
Acinetobacter baumannii [27] = assay: Bactericidal activity against Acinetobacter baumannii ATCC 19606 assessed as reduction in bacterial cell growth incubated for 18 to 20 hrs followed by re-plating on tryptic soy agar plates at 37 degC for 18 hrs by broth microdilution assay; type: functional
Enterococcus faecalis [28] = assay: Bactericidal activity against vancomycin resistant Enterococcus faecalis ATCC 51299 assessed as reduction in bacterial cell growth incubated for 18 to 20 hrs followed by re-plating on tryptic soy agar plates at 37 degC for 18 hrs by broth microdilution assay; type: functional
Streptococcus pneumoniae [29] = assay: Antibacterial activity against Cephalosporin resistant Streptococcus pneumoniae ATCC 51916 assessed as reduction in bacterial cell growth incubated for 18 to 20 hrs by broth microdilution method; type: functional
Staphylococcus aureus [30] = assay: Antibacterial activity against vancomycin resistant Staphylococcus aureus VRS12 assessed as reduction in bacterial cell growth incubated for 18 to 20 hrs by broth microdilution method; type: functional
Escherichia coli [31] = assay: Antibacterial activity against Escherichia coli BW25113 assessed as reduction in bacterial cell growth incubated for 18 to 20 hrs by broth microdilution method; type: functional
Enterococcus faecium [32] = assay: Antibacterial activity against vancomycin resistant Enterococcus faecium ATCC 700221 assessed as reduction in bacterial cell growth incubated for 18 to 20 hrs by broth microdilution method; type: functional
[33] = test system: Staphylococcus epidermidis; assay: Bactericidal activity against methicillin resistant Staphylococcus epidermidis NRS101 assessed as reduction in bacterial cell growth incubated for 18 to 20 hrs followed by re-plating on tryptic soy agar plates at 37 degC for 18 hrs by broth microdilution assay; type: functional
Klebsiella pneumoniae [34] = assay: Antibacterial activity against Klebsiella pneumoniae BAA-1706 assessed as reduction in bacterial cell growth incubated for 18 to 20 hrs by broth microdilution method; type: functional
Escherichia coli [35] = assay: Antibacterial activity against Escherichia coli JW55031 harboring deltatolC mutant assessed as reduction in bacterial cell growth incubated for 18 to 20 hrs by broth microdilution method; type: functional
Staphylococcus aureus [36] = assay: Antibacterial activity against methicillin resistant Staphylococcus aureus NRS119 assessed as reduction in bacterial cell growth incubated for 18 to 20 hrs by broth microdilution method; type: functional
Escherichia coli [37] = assay: BActericidal activity against Escherichia coli BW25113 assessed as reduction in bacterial cell growth incubated for 18 to 20 hrs followed by re-plating on tryptic soy agar plates at 37 degC for 18 hrs by broth microdilution assay; type: functional
Pseudomonas aeruginosa [38] = assay: Antibacterial activity against Pseudomonas aeruginosa ATCC 15442 assessed as reduction in bacterial cell growth incubated for 18 to 20 hrs by broth microdilution method; type: functional

## C/C(=N\NC(=N)N)c1sc(-c2ccc(C#Cc3cccs3)cc2)nc1C
Staphylococcus aureus [1]
  MBC: 2 µg/mL (≈ 5.27 µM)
Staphylococcus aureus [2]
  MBC: 4 µg/mL (≈ 10.5 µM)
J774
  Activity: Toxic
Staphylococcus aureus [3]
  MBC: 4 µg/mL (≈ 10.5 µM)
Enterococcus faecalis [4]
  MIC: 64 µg/mL (≈ 169 µM)
Listeria monocytogenes [5]
  MBC: 32 µg/mL (≈ 84.3 µM)
[6]
  solubility kinetic at 2 h: 50 µM (≈ 19 µg/mL)
Staphylococcus aureus [7]
  MBC: 16 µg/mL (≈ 42.2 µM)
Listeria monocytogenes [8]
  MIC: 8 µg/mL (≈ 21.1 µM)
Streptococcus pneumoniae [9]
  MBC: 8 µg/mL (≈ 21.1 µM)
Staphylococcus aureus [10]
  MIC: 4 µg/mL (≈ 10.5 µM)
Staphylococcus aureus [11]
  MIC: 8 µg/mL (≈ 21.1 µM)
Staphylococcus aureus [12]
  MIC: 1 µg/mL (≈ 2.63 µM)
Acinetobacter baumannii [13]
  MIC: > 64 µg/mL
Staphylococcus aureus [14]
  MBC: 16 µg/mL (≈ 42.2 µM)
Enterococcus faecium [15]
  MBC: 8 µg/mL (≈ 21.1 µM)
Klebsiella pneumoniae [16]
  MBC: > 64 µg/mL
Pseudomonas aeruginosa [17]
  MBC: > 64 µg/mL
Streptococcus pneumoniae [18]
  MIC: 4 µg/mL (≈ 10.5 µM)
Staphylococcus aureus [19]
  MIC: 2 µg/mL (≈ 5.27 µM)
Staphylococcus aureus [20]
  MBC: 2 µg/mL (≈ 5.27 µM)
[21]
  MIC: 1 µg/mL (≈ 2.63 µM)
Escherichia coli [22]
  MBC: > 64 µg/mL
Staphylococcus aureus [23]
  MIC: 1 µg/mL (≈ 2.63 µM)
Staphylococcus aureus [24]
  MIC: 2 µg/mL (≈ 5.27 µM)
Staphylococcus aureus [25]
  MBC: 8 µg/mL (≈ 21.1 µM)
Streptococcus pneumoniae [26]
  MBC: 4 µg/mL (≈ 10.5 µM)
Acinetobacter baumannii [27]
  MBC: > 64 µg/mL
Enterococcus faecalis [28]
  MBC: > 64 µg/mL
Streptococcus pneumoniae [29]
  MIC: 4 µg/mL (≈ 10.5 µM)
Staphylococcus aureus [30]
  MIC: 8 µg/mL (≈ 21.1 µM)
Escherichia coli [31]
  MIC: > 64 µg/mL
Enterococcus faecium [32]
  MIC: 4 µg/mL (≈ 10.5 µM)
[33]
  MBC: 1 µg/mL (≈ 2.63 µM)
Klebsiella pneumoniae [34]
  MIC: > 64 µg/mL
Escherichia coli [35]
  MIC: 64 µg/mL (≈ 169 µM)
Staphylococcus aureus [36]
  MIC: 2 µg/mL (≈ 5.27 µM)
Escherichia coli [37]
  MBC: > 64 µg/mL
Pseudomonas aeruginosa [38]
  MIC: > 64 µg/mL

## C/C(=N\NC(=N)N)c1sc(-c2ccc(C#Cc3ccc(C(=O)O)c(C)c3)cc2)nc1C
Staphylococcus aureus [19]
  MIC: > 64 µg/mL

## C/C(=N\NC(=N)N)c1sc(-c2ccc(C#CC3CCCCC3)cc2)nc1C
[6]
  solubility kinetic at 2 h: 2.7 µM (≈ 1.02 µg/mL)

## COC(=O)c1cccc(C#Cc2ccc(-c3nc(C)c(/C(C)=N/NC(=N)N)s3)cc2)c1
Staphylococcus aureus [19]
  MIC: 32 µg/mL (≈ 74.2 µM)

## C/C(=N\NC(=N)N)c1sc(-c2ccc(C#Cc3ccccc3O)cc2)nc1C
Staphylococcus aureus [19]
  MIC: > 64 µg/mL

## C/C(=N/NC(=N)N)c1ccc(C#Cc2ccc(-c3nc(C)c(/C(C)=N/NC(=N)N)s3)cc2)cc1
Staphylococcus aureus [19]
  MIC: > 64 µg/mL

## C/C(=N\NC(=N)N)c1sc(-c2ccc(C#Cc3cccc([N+](=O)[O-])c3)cc2)nc1C
Staphylococcus aureus [19]
  MIC: 64 µg/mL (≈ 153 µM)

## C/C(=N\NC(=N)N)c1sc(-c2ccc(C#Cc3ccccc3N)cc2)nc1C
Staphylococcus aureus [19]
  MIC: > 64 µg/mL

## C/C(=N\NC(=N)N)c1sc(-c2ccc(C#Cc3ccncc3)cc2)nc1C
Staphylococcus aureus [19]
  MIC: > 64 µg/mL

## C/C(=N\NC(=N)N)c1sc(-c2ccc(C#Cc3ccc(C)cc3)cc2)nc1C
Staphylococcus aureus [19]
  MIC: 32 µg/mL (≈ 82.6 µM)

## C/C(=N\NC(=N)N)c1sc(-c2ccc(C#Cc3cccc(N)c3)cc2)nc1C
Staphylococcus aureus [19]
  MIC: 4 µg/mL (≈ 10.3 µM)

## C/C(=N\NC(=N)N)c1sc(-c2ccc(C#Cc3ccccn3)cc2)nc1C
Staphylococcus aureus [19]
  MIC: 32 µg/mL (≈ 85.5 µM)

## CC[C@H]1OC(=O)[C@H](C)[C@@H](O[C@H]2C[C@@](C)(OC)[C@@H](O)[C@H](C)O2)[C@H](C)[C@@H](O[C@@H]2O[C@H](C)C[C@H](N(C)C)[C@H]2O)[C@](C)(O)C[C@@H](C)C(=O)[C@H](C)[C@@H](O)[C@]1(C)O [ERYTHROMYCIN]
Acinetobacter baumannii [13]
  MIC: 8 µg/mL (≈ 10.9 µM)
Klebsiella pneumoniae [16]
  MBC: > 64 µg/mL
Pseudomonas aeruginosa [17]
  MBC: > 64 µg/mL
Escherichia coli [22]
  MBC: 2 µg/mL (≈ 2.73 µM)
Acinetobacter baumannii [27]
  MBC: 16 µg/mL (≈ 21.8 µM)
Escherichia coli [31]
  MIC: 32 µg/mL (≈ 43.6 µM)
Klebsiella pneumoniae [34]
  MIC: 64 µg/mL (≈ 87.2 µM)
Escherichia coli [35]
  MIC: 1 µg/mL (≈ 1.36 µM)
Escherichia coli [37]
  MBC: > 64 µg/mL
Pseudomonas aeruginosa [38]
  MIC: > 64 µg/mL

## C/C(=N\NC(=N)N)c1sc(-c2ccc(C#Cc3ccccc3[N+](=O)[O-])cc2)nc1C
Staphylococcus aureus [19]
  MIC: > 64 µg/mL

## CCCCc1ccc(-c2nc(C)c(/C(C)=N/NC(=N)N)s2)cc1
[6]
  solubility kinetic at 2 h: 65 µM (≈ 21.4 µg/mL)
